Laboratory results reported in patent US9322066B2, “Predictors for cancer treatment” (priority 2011, dated 2016).

System: relapsed or refractory, rituximab-naive or -sensitive follicular B-cell NHL
Test: Progression-free survival (PFS), Vc-R vs rituximab study, by biomarker
Type: in vivo, human
Text: Non-Hodgkin lymphoma (NHL) encompasses several unique malignant lymphoid disease entities that vary in clinical behavior, morphologic appearance, immunologic, and molecular phenotype. […] A randomized, open-label, active-controlled, multicenter, multinational, prospective study to compare the efficacy and safety of the combination of bortezomib and rituximab (Vc-R) to single-agent rituximab in subjects who have relapsed or refractory, rituximab-naive or -sensitive follicular B-cell NHL was performed.
Subjects were centrally randomized to Treatment Groups A (Vc-R) or B (rituximab) in a 1:1 ratio taking into account the following stratification factors: • Follicular Lymphoma International Prognostic Index (FLIPI) score (low [0 or 1 factor], intermediate [2 factors], high [≧3 factors]); • Prior rituximab therapy (yes, no); • Time since last dose of anti-lymphoma therapy (≦1 year, >1 year); • Region (United States/Canada, European Union, Rest of World).
The following clinical endpoints were included in the analysis within each treatment group and an overall comparison was made with the biomarker-related endpoints: Progression-free survival, defined as the interval between the date of randomization and the date of progressive disease (PD) or death, whichever is first reported in the ITT population; overall survival; overall response rate (complete response [CR]+CR unconfirmed [CRu]+partial response [PR]); overall CR rate (CR+CRu); duration of response; time to next anti-lymphoma therapy; and treatment free interval.
For single-marker association analyses and pair-wise comparisons, a log rank test and Cox proportional hazard model was utilized for assessments of PFS, TTP, and OS between the treatment groups. Kaplan-Meier curves were utilized to estimate the distribution differences between groups in the time-to-event analyses. Comparison of the response rates between the treatment groups was conducted using the Fishers exact test. Single-marker association analyses were stratified by the covariates.
For pair-wise comparison analysis, biomarker pairs were formed by combinations of two markers. A log rank test was utilized for assessments of PFS, TTP, and OS between the treatment groups in the subpopulation defined by biomarker pairs. Kaplan-Meier curves were utilized to estimate the distribution differences between groups in the time-to-event analyses. Comparison of the response rates between the treatment groups was conducted using the Fishers exact test. Methods of Analysis for the multiple biomarker comparison models can be found in section 4.6.
The stratified log rank test and Cox proportional hazard model was utilized for assessments of PFS between the treatment groups. The Kaplan-Meier method was to be used to estimate the distribution of overall PFS for each treatment group in the biomarker population, and overall; stratified by expression level, SNP, or mutation (or covariate groups as noted above). The hazard ratio and 95% confidence interval was based on a stratified Cox's proportion hazard model with treatment as the explanatory variable. Analyses were done for the population overall and by treatment group, and each of these analyses were also stratified by the following factors if sufficient sample size existed: […]

rituximab
Median PFS (Vc − R vs R) (20S % NUCLEAR STAINING 30-90 + 20S INTENSITY CYTOPLASMIC SIGNAL >=3+, Excluded): 347 days
Median PFS (Vc − R vs R) (20S % NUCLEAR STAINING 30-90 + 20S INTENSITY CYTOPLASMIC SIGNAL >=3+, Selected): 280 days
Median PFS (Vc − R vs R) (20S % NUCLEAR STAINING 30-90 + 20S INTENSITY CYTOPLASMIC SIGNAL >=3+, Total): 345 days
Median PFS (Vc-R vs R) (AGEGRP <=65 + CD68 POSITIVE FOLLICULAR 0-50, Excluded): 427 days
Median PFS (Vc-R vs R) (AGEGRP <=65 + CD68 POSITIVE FOLLICULAR 0-50, Selected): 275 days
Median PFS (Vc-R vs R) (AGEGRP <=65 + CD68 POSITIVE FOLLICULAR 0-50, Total): 346 days
Median PFS (Vc − R vs R) (AGEGRP <=65 + CD68 POSITIVE PERIFOLLICULAR 0-50, Excluded): 351 days
Median PFS (Vc − R vs R) (AGEGRP <=65 + CD68 POSITIVE PERIFOLLICULAR 0-50, Selected): 281 days
Median PFS (Vc − R vs R) (AGEGRP <=65 + CD68 POSITIVE PERIFOLLICULAR 0-50, Total): 346 days
Median PFS (Vc − R vs R) (AGEGRP <=65 + P27 % NUCLEI POSITIVE 0-70, Excluded): 348 days
Median PFS (Vc − R vs R) (AGEGRP <=65 + P27 % NUCLEI POSITIVE 0-70, Selected): 279 days
Median PFS (Vc − R vs R) (AGEGRP <=65 + P27 % NUCLEI POSITIVE 0-70, Total): 345 days
PFS median (Biomarker Negative (all subjects without the pair), N = 238): 12.5 months
PFS median (Biomarker Positive (PSMB P11A heterozygote and CD68 Low), N = 118): 9.1 months
PFS median (CD68 OVERALL POSITIVE 0-25): 10.6 mo
PFS median (CD68 OVERALL POSITIVE 26-50): 9.3 mo
PFS median (CD68 POSITIVE FOLLICULAR 0-25): 9.3 mo
Median PFS (Vc − R vs R) (CD68 POSITIVE FOLLICULAR 0-50 + CD68 POSITIVE PERIFOLLICULAR 0-50, Excluded): 351 days
Median PFS (Vc − R vs R) (CD68 POSITIVE FOLLICULAR 0-50 + CD68 POSITIVE PERIFOLLICULAR 0-50, Selected): 282 days
Median PFS (Vc − R vs R) (CD68 POSITIVE FOLLICULAR 0-50 + CD68 POSITIVE PERIFOLLICULAR 0-50, Total): 346 days
Median PFS (Vc − R vs R) (CD68 POSITIVE FOLLICULAR 0-50 + P65 % POSITIVE CYTOPLASMIC SIGNAL >90%, Excluded): 486 days
Median PFS (Vc − R vs R) (CD68 POSITIVE FOLLICULAR 0-50 + P65 % POSITIVE CYTOPLASMIC SIGNAL >90%, Selected): 279 days
Median PFS (Vc − R vs R) (CD68 POSITIVE FOLLICULAR 0-50 + P65 % POSITIVE CYTOPLASMIC SIGNAL >90%, Total): 346 days
PFS median (CD68 POSITIVE FOLLICULAR 26-50): 9.1 mo
PFS median (CD68 Pos Follic (0-50) & P11A[C/G]**, first line (P 0.0025)): 8.5 mo
PFS median (CD68 Pos Follic (0-50) & P11A[C/G]**, second line (n.s.)): 9.2 mo
PFS (CD68 high): did better on rituximab alone
Median PFS (Vc-R vs R) (Excluded: 20S % NUCLEAR STAINING 30-90 and P65 % POSITIVE CYTOPLASMIC SIGNAL >90%): 419 days
Median PFS (Vc-R vs R) (Excluded: AGEGRP <=65 and CD68 OVERALL POSITIVE 0-50): 351 days
Median PFS (Vc-R vs R) (Excluded: AGEGRP <=65 and P65 % POSITIVE CYTOPLASMIC SIGNAL >90%): 414 days
Median PFS (Vc-R vs R) (Excluded: CD68 OVERALL POSITIVE 0-50 and P65 % POSITIVE C[…] >90%): 375 days
Median PFS (Vc-R vs R) (Excluded: FLIPI High and P65 % POSITIVE CYTOPLASMIC SIGNAL >90%): 378 days
Median PFS (Vc-R vs R) (Excluded: PRITUX NO and P65 % NUCLEAR STAINING 0): 346 days
Median PFS (Vc-R vs R) (Excluded: PSMB1/P11A C/G and ANNARBOR >=III): 375 days
Median PFS (Vc-R vs R) (Excluded: PSMB1/P11A C/G and P65 % NUCLEAR STAINING 0): 346 days
Median PFS (Vc − R vs R) (FLIPI High + P27 % NUCLEI POSITIVE 0-70, Excluded): 351 days
Median PFS (Vc − R vs R) (FLIPI High + P27 % NUCLEI POSITIVE 0-70, Selected): 212 days
Median PFS (Vc − R vs R) (FLIPI High + P27 % NUCLEI POSITIVE 0-70, Total): 345 days
PFS median (HI Tumor BD NO & CD68 OVERALL POSITIVE: 0-50): 16 mo
PFS median (HI Tumor BD NO & CD68 POSITIVE FOLLICULAR: 0-50): 13.8 mo
PFS median (P65 Cytoplasmic signal >90% & 1 prior treatment*, first line (P 0.0132)): 10.6 mo
PFS median (P65 Cytoplasmic signal >90% & 1 prior treatment*, second line (n.s.)): 8.9 mo
PFS median (P65 INTENSITY CYTOPLASMIC SIGNAL <=1+): 9.3 mo
PFS median (PSMB1/P11A C/G): 9.3 mo
PFS median (PSMB1/P11A C/G & 20S % POSITIVE CYTOPLASMIC SIGNAL: >90): 9.5 mo
PFS median (PSMB1/P11A C/G & Age group: <=65): 9.2 mo
PFS median (PSMB1/P11A C/G & CD68 POSITIVE FOLLICULAR: 0-50): 9.1 mo
PFS median (PSMB1/P11A C/G & CD68 POSITIVE PERIFOLLICULAR: >50): 9.2 mo
PFS median (PSMB1/P11A C/G & PSMB5/R24C C/T): 7.8 mo
PFS median (PSMB1/P11A C/G & Time since last Rx: >1 year): 10.7 mo
Median PFS (Vc-R vs R) (PSMB1/P11A C/G + 20S % NUCLEAR STAINING 30-90, Excluded): 346 days
Median PFS (Vc-R vs R) (PSMB1/P11A C/G + 20S % NUCLEAR STAINING 30-90, Selected): 275 days
Median PFS (Vc-R vs R) (PSMB1/P11A C/G + 20S % NUCLEAR STAINING 30-90, Total): 345 days
Median PFS (Vc-R vs R) (PSMB1/P11A C/G + 20S INTENSITY CYTOPLASMIC SIGNAL <=2+, Excluded): 345 days
Median PFS (Vc-R vs R) (PSMB1/P11A C/G + 20S INTENSITY CYTOPLASMIC SIGNAL <=2+, Selected): 278 days
Median PFS (Vc-R vs R) (PSMB1/P11A C/G + 20S INTENSITY CYTOPLASMIC SIGNAL <=2+, Total): 345 days
Median PFS (Vc-R vs R) (PSMB1/P11A C/G + AGEGRP <=65, Excluded): 348 days
Median PFS (Vc-R vs R) (PSMB1/P11A C/G + AGEGRP <=65, Selected): 279 days
Median PFS (Vc-R vs R) (PSMB1/P11A C/G + AGEGRP <=65, Total): 345 days
Median PFS (Vc − R vs R) (PSMB1/P11A C/G + CD68 OVERALL POSITIVE 0-50, Excluded): 348 days
Median PFS (Vc − R vs R) (PSMB1/P11A C/G + CD68 OVERALL POSITIVE 0-50, Selected): 278 days
Median PFS (Vc − R vs R) (PSMB1/P11A C/G + CD68 OVERALL POSITIVE 0-50, Total): 345 days
Median PFS (Vc-R vs R) (PSMB1/P11A C/G + P27 % NUCLEI POSITIVE 0-70, Excluded): 348 days
Median PFS (Vc-R vs R) (PSMB1/P11A C/G + P27 % NUCLEI POSITIVE 0-70, Selected): 277 days
Median PFS (Vc-R vs R) (PSMB1/P11A C/G + P27 % NUCLEI POSITIVE 0-70, Total): 338 days
Median PFS (Vc-R vs R) (PSMB1/P11A C/G + P27 SIGNAL INTENSITY >=2+, Excluded): 346 days
Median PFS (Vc-R vs R) (PSMB1/P11A C/G + P27 SIGNAL INTENSITY >=2+, Selected): 280 days
Median PFS (Vc-R vs R) (PSMB1/P11A C/G + P27 SIGNAL INTENSITY >=2+, Total): 338 days
